The values that follow are results of earlier work, collected in patent EP3067353A1, “A PROCESS FOR THE PREPARATION OF SOLIFENACIN SALTS AND THEIR INCLUSION INTO PHARMACEUTICAL DOSAGE FORMS” (KRKA, D.D., Novo Mesto, priority 2008, dated 2010).

Structures can show the parent of a compound that is named as a salt.

For data set [1] the following is noted: relative humidity of 70% (room temperature).

As to `O=C(O[C@H]1CN2CCC1CC2)N1CCc2ccccc2[C@@H]1c1ccccc1` [hydrochloride], the “impurities during long term storage” value is reported as “increase of impurities during long term storage”. In addition, the hygroscopicity entry in data set [1] is reported as “so hydroscopic as to deliquence”.
